Data reported in patent publication US20230002393A1, “CDK KINASE INHIBITOR” (BEIJING BENICALL BIOTECH CO., LTD., priority 2019, published 2023).

Tests used:
MCF-7 cells = test: Cell viability assay, MCF-7 cells (CellTiter-Glo, 168 h); assay type: cell-based; settings: Homo sapiens, MCF7
How it was run: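 MCF-7 cells (about 3,000/well) were incubated with compound at 8 concentrations for 168 h at 37 °C, 5% CO2. Viability was read by CellTiter-Glo luminescence, and IC50 intervals were derived from survival rates.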

CDK6/CyclinD1 = target: T1, CDK6/CyclinD1 (Homo sapiens, UniProt Q00534); test: In vitro cell-free CDK6/CyclinD1 kinase activity assay (TR-FRET); assay type: biochemical; settings: ATP at Km
T1 construct: purchased Carna 04-114
How it was run: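 TR-FRET readout: reaction stopped with EDTA-containing detection buffer holding peptide antibody and Sa-XL665, 1 h at room temperature, then 665/615 nm emission ratio (excitation 330 nm) taken as activity. 8-10 compound concentrations from DMSO stocks at 200× working concentration; IC50 fitted versus no-inhibitor and no-enzyme controls.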

T1 sequence (Q00534 whole entry): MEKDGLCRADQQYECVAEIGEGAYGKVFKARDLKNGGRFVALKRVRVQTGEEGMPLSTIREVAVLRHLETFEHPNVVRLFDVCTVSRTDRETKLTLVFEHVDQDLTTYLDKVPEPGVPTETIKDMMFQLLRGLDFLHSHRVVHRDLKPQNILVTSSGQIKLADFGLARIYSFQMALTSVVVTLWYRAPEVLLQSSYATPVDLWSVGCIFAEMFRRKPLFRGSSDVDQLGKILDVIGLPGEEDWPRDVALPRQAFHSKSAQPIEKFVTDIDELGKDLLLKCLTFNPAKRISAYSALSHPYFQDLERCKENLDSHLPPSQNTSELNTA
T1 sequence (P24385 whole entry partner): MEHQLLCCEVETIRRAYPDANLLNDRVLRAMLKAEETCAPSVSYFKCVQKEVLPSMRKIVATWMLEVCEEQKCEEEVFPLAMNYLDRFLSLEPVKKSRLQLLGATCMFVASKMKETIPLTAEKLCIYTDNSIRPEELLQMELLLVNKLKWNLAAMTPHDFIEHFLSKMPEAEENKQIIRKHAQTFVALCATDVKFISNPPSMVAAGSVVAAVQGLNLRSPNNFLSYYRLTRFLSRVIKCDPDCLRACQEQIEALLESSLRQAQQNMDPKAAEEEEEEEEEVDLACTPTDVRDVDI

SMILES | IC50 (MCF-7 cells) | IC50 (CDK6/CyclinD1)
COCCOc1ccc(-c2c(C(=O)N(C)C)cc3cnc(Nc4ccc(N5CCC6(CCNCC6)C5)cn4)nn23)cc1 [Example 50] | 2500 to 10000 nM | < 100 nM
N#Cc1cc2cnc(Nc3ccc(N4CCNCC4)cc3)nn2c1N1CCC2(CCNCC2)CC1 [Example 16] | 500 to 2500 nM | < 100 nM
CN(C)C(=O)c1cc2cnc(Nc3ccc(N4CCNCC4)cn3)nn2c1-c1ccncc1 [Example 58] | 2500 to 10000 nM | < 100 nM
CN(C)C(=O)c1cc2cnc(Nc3ccc(N4CCC5(CCNCC5)CC4)cn3)nn2c1C1=CCCC1 [Example 33] | < 500 nM | < 100 nM
C1=C(c2ccc3cnc(Nc4ccc(N5CCNCC5)cc4)nn23)CCC1 [Example 4] | < 500 nM | 100 to 1000 nM
CN(C)C(=O)c1cc2cnc(Nc3ccc(N4CCC5(CC4)CNC5)cn3)nn2c1-c1ccc(Cl)cc1 [Example 44] | < 500 nM | < 100 nM
COC(=O)c1cc2cnc(Nc3ccc(N4CCNCC4)cn3)nn2c1-c1cccc2cccnc12 [Reference Example 132, reference compound] | > 10000 nM | > 3000 nM

Further lines, results first:

IC50 (MCF-7 cells) | IC50 (CDK6/CyclinD1) | SMILES
< 500 nM | < 100 nM | COc1ccc(-c2c(C#N)cc3cnc(Nc4ccc(N5CCNCC5)cc4)nn23)cn1 [Example 18]
< 500 nM | < 100 nM | COc1ccc(-c2c(C#N)cc3cnc(Nc4ccc(N5CCNCC5)cc4)nn23)cc1 [Example 9]
< 500 nM | < 100 nM | N#Cc1cc2cnc(Nc3ccc(N4CCNCC4)cc3)nn2c1-c1cccnc1 [Example 12]
< 500 nM | 100 to 1000 nM | N#Cc1cc2cnc(Nc3ccc(N4CCNCC4)cc3)nn2c1-c1cccc2cccnc12 [Example 15]
